Patent EP4389751A1, “HETEROCYCLIC COMPOUNDS AND USES THEREOF” (Kumquat Biosciences Inc., priority 2021, dated 2024)
Like-named read-outs stand apart in the source and are kept apart here.

Assays:
[1] = molecular target: T1, KRAS protein (His-tagged GDP-loaded G12S 1-169) (Homo sapiens, UniProt P01116, G12S); assay: Covalent modification of KRAS protein, intact-protein LC-MS; format: binding; settings: 24hrs at room temperature, KRAS protein ~2 µM
T1 construct: His-tagged GDP-loaded G12S 1-169
How it was run: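 His-tagged GDP-loaded KRAS 1-169 (~2 µM) incubated with compound 24 h at room temperature, then quenched with formic acid. Intact-protein LC-ESI-MS on C4 column; deconvoluted peak intensities of unmodified and adducted protein give percent covalent modification.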

K-Ras G12S = molecular target: T2, K-Ras G12S (Homo sapiens, UniProt P01116, G12S); assay: HTRF assay of the K-Ras / SOS1 interaction; format: biochemical; settings: IC50 (against K-Ras G12D) to IC50 (against K-Ras G12S)
T2 construct: made in house; host or cells: E. coli (e.g., BL21 (DE3))
How it was run: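 GST-K-Ras G12S with anti-GST-Eu donor and His-hSOS1 with anti-6His-XL665 acceptor in ~5 mM HEPES pH 7.4, ~150 mM NaCl, 1 mM DTT, 0.05% BSA, 0.0025% Igepal. Read after ~10 min or longer; IC50 from 665/620 nm ratio, duplicates at 10 µM down to 0.01 µM.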

GP2D cells = assay: Cell proliferation assay (CellTiter-Glo), K-Ras G12D cells; format: cell-based; settings: read-out: Inhibition of GP2D Cells (IC50)
How it was run: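 GP2D (K-Ras G12D) cells seeded in DMEM with 2 mM glutamine and 10% FBS, then dosed next day with a dilution series (e.g., 9-point 3-fold). Viability read by CellTiter-Glo luminescence after about 5 days. IC50 from four-parameter fit.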

| Structure (SMILES) | % G12S Modification at 24 hr. [1] | Ratio of IC50 KRAS G12D vs. IC50 KRAS G12S (K-Ras G12S) | IC50 (GP2D cells; GP2d) [µM] | IC50 (GP2D cells; GP2D cells (K-Ras G12D)) [µM] |
| --- | --- | --- | --- | --- |
| Nc1nc2c(-c3c(Cl)cc4c(N[C@H]5C[C@H]6CC[C@@H](C5)N6C(=O)n5cncn5)nc(OC[C@@]56CCCN5C[C@H](F)C6)nc4c3F)ccc(F)c2s1 [Compound A207, ((1R,3r,5S)-3-((7-(2-amino-7-fluorobenzo[d]thiazol-4-yl)-6-chloro-8-fluoro-2-(((2R,7aS)-2-fluorotetrahydro-1H-pyrrolizin-7a(5H)-yl)methoxy)quinazolin-4-yl)amino)-8-azabicyclo[3.2.1]octan-8-yl)(1H-1,2,4-triazol-1-yl)methanone] | +++ (+++ indicates greater than 20% labelling) | A (A: indicates that the ratio of IC50 against KrasG12D vs. IC50 against KrasG12S is 1-fold or greater) | 1 to 10 | – |
| CC1(C)CN(c2nc(OC[C@@]34CCCN3C[C@H](F)C4)nc3c(F)c(-c4ccc(F)c5sc(N)c(C#N)c45)c(Cl)cc23)CC2(CN(C(=O)n3cncn3)C2)O1 [Compound A296, 2-amino-4-(6-chloro-4-(6,6-dimethyl-2-(1H-1,2,4-triazole-1-carbonyl)-5-oxa-2,8-diazaspiro[3.5]nonan-8-yl)-8-fluoro-2-(((2R,7aS)-2-fluorotetrahydro-1H-pyrrolizin-7a(5H)-yl)methoxy)quinazolin-7-yl)-7-fluorobenzo[b]thiophene-3-carbonitrile] | +++ (+++ indicates greater than 20% labelling) | A (A: indicates that the ratio of IC50 against KrasG12D vs. IC50 against KrasG12S is 1-fold or greater) | – | 1 to 10 |
| N#Cc1c(N)sc2c(F)ccc(-c3c(Cl)cc4c(N5CCOC6(CN(C(=O)n7cncn7)C6)C5)nc(OC[C@@]56CCCN5C[C@H](F)C6)nc4c3F)c12 [Compound A132, 4-(4-(2-(1H-1,2,4-triazole-1-carbonyl)-5-oxa-2,8-diazaspiro[3.5]nonan-8-yl)-6-chloro-8-fluoro-2-(((2R,7aS)-2-fluorotetrahydro-1H-pyrrolizin-7a(5H)-yl)methoxy)quinazolin-7-yl)-2-amino-7-fluorobenzo[b]thiophene-3-carbonitrile] | +++ (+++ indicates greater than 20% labelling) | A (A: indicates that the ratio of IC50 against KrasG12D vs. IC50 against KrasG12S is 1-fold or greater) | – | 1 to 10 |
| N#C[C@H]1CN(c2nc(OC[C@@]34CCCN3C[C@H](F)C4)nc3c(F)c(-c4ccc(F)c5sc(N)nc45)c(Cl)cc23)CCN1C(=O)n1cncn1 [Compound A157, (2R)-4-(7-(2-amino-7-fluorobenzo[d]thiazol-4-yl)-6-chloro-8-fluoro-2-(((2R,7aS)-2-fluorotetrahydro-1H-pyrrolizin-7a(5H)-yl)methoxy)quinazolin-4-yl)-1-(1H-1,2,4-triazole-1-carbonyl)piperazine-2-carbonitrile] | ++ (++ indicates between about 1%- 20% labelling) | A (A: indicates that the ratio of IC50 against KrasG12D vs. IC50 against KrasG12S is 1-fold or greater) | – | 1 to 10 |
| Nc1nc2c(-c3c(Cl)cc4c(N5CCC56CCCN(C(=O)n5cncn5)CC6)nc(OC[C@@]56CCCN5C[C@H](F)C6)nc4c3F)ccc(F)c2s1 (stereo partly drawn) [Compound A209, (1-(7-(2-amino-7-fluorobenzo[d]thiazol-4-yl)-6-chloro-8-fluoro-2-(((2R,7aS)-2-fluorotetrahydro-1H-pyrrolizin-7a(5H)-yl)methoxy)quinazolin-4-yl)-1,7-diazaspiro[3.6]decan-7-yl)(1H-1,2,4-triazol-1-yl)methanone] | ++ (++ indicates between about 1%- 20% labelling) | A (A: indicates that the ratio of IC50 against KrasG12D vs. IC50 against KrasG12S is 1-fold or greater) | – | 1 to 10 |
| Nc1nc2c(-c3c(Cl)cc4c(N5CC6(CN(C(=O)n7cncn7)CCO6)C5)nc(OC[C@@]56CCCN5C[C@H](F)C6)nc4c3F)ccc(F)c2s1 [Compound A268, (2-(7-(2-amino-7-fluorobenzo[d]thiazol-4-yl)-6-chloro-8-fluoro-2-(((2R,7aS)-2-fluorotetrahydro-1H-pyrrolizin-7a(5H)-yl)methoxy)quinazolin-4-yl)-5-oxa-2,8-diazaspiro[3.5]nonan-8-yl)(1H-1,2,4-triazol-1-yl)methanone] | +++ (+++ indicates greater than 20% labelling) | A (A: indicates that the ratio of IC50 against KrasG12D vs. IC50 against KrasG12S is 1-fold or greater) | – | 1 to 10 |
| Nc1nc2c(-c3c(Cl)cc4c(N5CC6CN(C(=O)n7cncn7)CC6C5)nc(OC[C@@]56CCCN5C[C@H](F)C6)nc4c3F)ccc(F)c2s1 (stereo partly drawn) [Compound A127, (5-(7-(2-amino-7-fluorobenzo[d]thiazol-4-yl)-6-chloro-8-fluoro-2-(((2R,7aS)-2-fluorotetrahydro-1H-pyrrolizin-7a(5H)-yl)methoxy)quinazolin-4-yl)hexahydropyrrolo[3,4-c]pyrrol-2(1H)-yl)(1H-1,2,4-triazol-1-yl)methanone] | ++ (++ indicates between about 1%- 20% labelling) | A (A: indicates that the ratio of IC50 against KrasG12D vs. IC50 against KrasG12S is 1-fold or greater) | – | 1 to 10 |
| Nc1nc2c(-c3c(Cl)cc4c(N5CCCC6(CCN(C(=O)n7cncn7)C6)C5)nc(OC[C@@]56CCCN5C[C@H](F)C6)nc4c3F)ccc(F)c2s1 (stereo partly drawn) [Compound A104, (7-(7-(2-amino-7-fluorobenzo[d]thiazol-4-yl)-6-chloro-8-fluoro-2-(((2R,7aS)-2-fluorotetrahydro-1H-pyrrolizin-7a(5H)-yl)methoxy)quinazolin-4-yl)-2,7-diazaspiro[4.5]decan-2-yl)(1H-1,2,4-triazol-1-yl)methanone] | ++ (++ indicates between about 1%- 20% labelling) | A (A: indicates that the ratio of IC50 against KrasG12D vs. IC50 against KrasG12S is 1-fold or greater) | – | 1 to 10 |
| N#Cc1c(N)sc2c(F)ccc(-c3c(Cl)cc4c(N5CC6(CCCN(C(=O)n7cncn7)C6)C5)nc(OC[C@@]56CCCN5C[C@H](F)C6)nc4c3F)c12 [Compound A266, 4-(4-(6-(1H-1,2,4-triazole-1-carbonyl)-2,6-diazaspiro[3.5]nonan-2-yl)-6-chloro-8-fluoro-2-(((2R,7aS)-2-fluorotetrahydro-1H-pyrrolizin-7a(5H)-yl)methoxy)quinazolm-7-yl)-2-amino-7-fluorobenzo[b]thiophene-3-carbonitrile] | +++ (+++ indicates greater than 20% labelling) | A (A: indicates that the ratio of IC50 against KrasG12D vs. IC50 against KrasG12S is 1-fold or greater) | – | 1 to 10 |
| N#Cc1cnn(C(=O)N2CCN(c3nc(OC[C@@]45CCCN4C[C@H](F)C5)nc4c(F)c(-c5ccc(F)c6sc(N)nc56)c(Cl)cc34)CC(F)(F)C2)c1 [Compound A126, 1-(4-(7-(2-amino-7-fluorobenzo[d]thiazol-4-yl)-6-chloro-8-fluoro-2-(((2R,7aS)-2-fluorotetrahydro-1H-pyrrolizin-7a(5H)-yl)methoxy)quinazolin-4-yl)-6,6-difluoro-1,4-diazepane-1-carbonyl)-1Hpyrazole-4-carbonitrile] | +++ (+++ indicates greater than 20% labelling) | A (A: indicates that the ratio of IC50 against KrasG12D vs. IC50 against KrasG12S is 1-fold or greater) | – | 1 to 10 |
